Among the data in patent US8846730B2, “Compounds as cannabinoid receptor ligands” (priority 2008, dated 2014) are Ki and EC50 values, retold here.

Each structure is given as a SMILES string. Where two headings read alike, the source gives them in different places.

The target of one test is human CB2 receptors (Homo sapiens (Human), UniProt P34972). Description: human CB2 radioligand binding assay ([3H]CP 55,940 competition). To be noted: HEK293 membranes, 0.5 nM [3H]CP 55,940; read-out: human CB2 (Ki). The method, boiled down:
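Membranes from HEK293 cells stably expressing human CB2 (5 μg protein/well) competed against 0.5 nM [3H]CP 55,940 with five concentrations of test ligand (0.01 nM to 10 μM), pH 7.4 Tris buffer with BSA, 90 min at 30 °C. Filtration and scintillation counting; nonspecific binding with 10 μM unlabeled CP 55,940.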

The next test concerns the target rat CB2 receptors (Rattus norvegicus (Rat), UniProt Q9QZN9). Briefly: rat CB2 radioligand binding assay ([3H]CP 55,940 competition). Conditions: HEK293 membranes, 0.5 nM [3H]CP 55,940. A digest of the protocol: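 Membranes from HEK293 cells stably expressing rat CB2 (20 μg protein/well) were incubated 45 min at 30 °C with 0.5 nM [3H]CP 55,940 and five displacer concentrations, in pH 7.4 Tris buffer with 0.5 mg/mL BSA. Bound radioactivity was measured by filtration. Nonspecific binding was defined with 10 μM unlabeled CP 55,940.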

The target in test [1] is rat CB2 receptors (HEK cells) (Rattus norvegicus (Rat), UniProt Q9QZN9). Description: rat CB2 cyclase functional assay (HitHunter cAMP). It is filed as cell-based. As to the method:
The cyclase functional assays were performed using the HitHunter™ cAMP assay kit from DiscoveRx (Fremont, Calif.) according to vendor's protocol. Briefly, HEK cells expressing CB2 or CB1 receptors (rat or human) were detached using cell dissociation buffer (Invitrogen, Carlsbad, Calif.), dispersed and placed in suspension at 10,000 cells per well in 96 well plates prior to the assay. Cell suspensions were incubated at 37° C. for 20 min with variable concentrations of test ligands and or 10 μM CP 55,940-positive control in the presence of a fixed concentration of forskolin (18 μM for rat CB2 and 37 μM for rat CB1) in Dulbescco's phosphate-buffered saline (Invitrogen, Carlsbad, Calif.) supplemented with bovine serum albumin (0.01% final concentration). The reactions were terminated by the addition of lysis buffer and the luminescence was detected following the procedure according to the manufacturer's instructions. EC50 values were calculated using sigmoidal dose-response curve fitting from Prism (GraphPad).

For test [2], the target named is rat CB1 receptors (HEK cells) (Rattus norvegicus (Rat), UniProt P20272). Briefly: rat CB1 cyclase functional assay (HitHunter cAMP). The class given is cell-based.
Where [3] appears, read: HEK cells, forskolin 18 μM, read-out: rat CB2 cyclase (EC50).
[4] abbreviates: HEK cells, forskolin 37 μM, read-out: rCB1 cyclase (EC50).

As a reminder, the Ki is a dissociation constant, usually derived from enzyme kinetics or from competition with a known ligand. By EC50 is commonly meant the concentration at which the effect is half-maximal.

human CB2 receptors, sequence (P34972 whole entry): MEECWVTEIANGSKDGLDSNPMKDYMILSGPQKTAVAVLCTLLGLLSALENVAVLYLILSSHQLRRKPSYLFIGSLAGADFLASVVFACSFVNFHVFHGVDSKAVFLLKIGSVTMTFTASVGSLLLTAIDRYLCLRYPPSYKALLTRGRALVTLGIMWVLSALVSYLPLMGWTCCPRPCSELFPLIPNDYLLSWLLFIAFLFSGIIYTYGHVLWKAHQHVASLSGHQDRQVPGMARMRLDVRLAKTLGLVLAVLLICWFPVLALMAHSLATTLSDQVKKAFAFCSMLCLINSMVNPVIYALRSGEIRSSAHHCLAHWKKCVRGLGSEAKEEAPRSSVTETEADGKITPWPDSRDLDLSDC
rat CB1 receptors (HEK cells), sequence (P20272 whole entry): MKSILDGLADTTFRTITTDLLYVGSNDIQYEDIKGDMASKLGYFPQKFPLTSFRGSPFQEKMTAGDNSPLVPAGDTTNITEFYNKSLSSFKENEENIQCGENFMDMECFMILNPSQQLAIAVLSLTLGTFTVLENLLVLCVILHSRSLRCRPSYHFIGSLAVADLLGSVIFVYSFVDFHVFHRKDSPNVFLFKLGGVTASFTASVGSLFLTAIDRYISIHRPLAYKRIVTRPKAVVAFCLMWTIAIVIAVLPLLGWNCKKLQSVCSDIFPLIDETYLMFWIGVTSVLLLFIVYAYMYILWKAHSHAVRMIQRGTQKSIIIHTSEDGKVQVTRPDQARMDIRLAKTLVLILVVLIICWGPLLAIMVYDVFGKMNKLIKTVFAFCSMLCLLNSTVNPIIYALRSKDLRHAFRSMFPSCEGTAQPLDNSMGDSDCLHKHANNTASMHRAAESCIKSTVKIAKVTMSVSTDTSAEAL

Take `CC(C)(C)c1cn(C[C@@H]2CCCO2)/c(=N/C(=O)c2cc(C(F)(F)F)ccc2OC[C@H](N)CO)s1` [Example 33, 2-{[(2R)-2-amino-3-hydroxypropyl]oxy}-N-[(2Z)-5-tert-butyl-3-[(2S)-tetrahydrofuran-2-ylmethyl]-1,3-thiazol-2(3H)-ylidene]-5-(trifluoromethyl)benzamide]: the Ki at human CB2 receptors was 7.4 nM; at rat CB2 receptors, 2.8 nM. Also, the results for the EC50 in test [1] (setting [3]) and in test [2] were 0.18 nM and 1170 nM, respectively.
As to `CN1CCN(C)C(COc2ccc(C(F)(F)F)cc2C(=O)/N=c2\sc(C(C)(C)C)cn2C[C@@H]2CCCO2)C1` (some centres unmarked) [Example 34, N-[(2Z)-5-tert-butyl-3-[(25)-tetrahydrofuran-2-ylmethyl]-1,3-thiazol-2(3H)-ylidene]-2-[(1,4-dimethylpiperazin-2-yl)methoxy]-5-(trifluoromethyl)benzamide], the figures for the Ki at human CB2 receptors and at rat CB2 receptors were 25 nM and 13 nM, respectively. Also, the values for the EC50 in test [1] (setting [3]) and in test [2] (setting [4]) were 0.3 nM and 4090 nM, respectively.
For `CN(CCOc1ccc(C(F)(F)F)cc1C(=O)/N=c1\sc(C(C)(C)C)cn1C[C@H]1CCCO1)c1ccccc1` [Example 35, N-[(2Z)-5-tert-butyl-3-[(2R)-tetrahydrofuran-2-ylmethyl]-1,3-thiazol-2(3H)-ylidene]-2-{2-[methyl(phenyl)amino]ethoxy}-5-(trifluoromethyl)benzamide], the Ki at human CB2 receptors amounted to 14 nM; at rat CB2 receptors it was 6.5 nM. The EC50 came to 6.31 nM in test [1] (setting [3]) and 9490 nM in test [2].
Taken in the same sequence, the figures for `CC(C)(C)c1cn(C[C@H]2CCCO2)/c(=N/C(=O)c2cc(C(F)(F)F)ccc2OCc2ccccc2)s1` [Example 36, 2-(benzyloxy)-N-[(2Z)-5-tert-butyl-3-[(2R)-tetrahydrofuran-2-ylmethyl]-1,3-thiazol-2(3H)-ylidene]-5-(trifluoromethyl)benzamide] were 6 nM, 2.9 nM, 1.47 nM and 6560 nM.
For `CC(C)(C)c1cn(C[C@H]2CCCO2)/c(=N/C(=O)c2cc(C(F)(F)F)ccc2OCc2cnco2)s1` [Example 37, N-[(2Z)-5-tert-butyl-3-[(2R)-tetrahydrofuran-2-ylmethyl]-1,3-thiazol-2(3H)-ylidene]-2-(1,3-oxazol-5-ylmethoxy)-5-(trifluoromethyl)benzamide], the Ki on human CB2 receptors was found to be 26 nM; on rat CB2 receptors it was 9 nM. Also, the values for the EC50 in test [1] and in test [2] were 0.5 nM and 7550 nM, respectively.
For `CC(C)(C)c1cn(C[C@H]2CCCO2)/c(=N/C(=O)c2cc(C(F)(F)F)ccc2OCc2nccs2)s1` [Example 38, N-[(2Z)-5-tert-butyl-3-[(2R)-tetrahydrofuran-2-ylmethyl]-1,3-thiazol-2(3H)-ylidene]-2-(1,3-thiazol-2-ylmethoxy)-5-(trifluoromethyl)benzamide], in that order: 5.5 nM, 2.5 nM, 0.33 nM and 2000 nM.
As for `COCCn1cc(C(C)(C)C)s/c1=N\C(=O)c1cc(C(F)(F)F)ccc1OCc1cnccn1` [Example 41, N-[(2Z)-5-tert-butyl-3-(2-methoxyethyl)-1,3-thiazol-2(3H)-ylidene]-2-(pyrazin-2-ylmethoxy)-5-(trifluoromethyl)benzamide], the Ki at human CB2 receptors is 45 nM; on rat CB2 receptors, 14 nM. In addition, the EC50 in test [1] was 4.49 nM; in test [2] it was 5700 nM.
Consider `CN1C(=O)CC[C@H]1COc1ccc(C(F)(F)F)cc1C(=O)/N=c1\sc(C(C)(C)C)cn1C[C@H]1CCCO1` [Example 43, N-[(2Z)-5-tert-butyl-3-[(2R)-tetrahydrofuran-2-ylmethyl]-1,3-thiazol-2(3H)-ylidene]-2-{[(2S)-1-methyl-5-oxopyrrolidin-2-yl]methoxy}-5-(trifluoromethyl)benzamide], for which the Ki at human CB2 receptors came to 62 nM; at rat CB2 receptors it was 3.3 nM. Besides, the values for the EC50 in test [1] (setting [3]) and in test [2] were 2.09 nM and 6560 nM, respectively.
`CC(C)(C)c1cn(C[C@H]2CCCO2)/c(=N/C(=O)c2cc(C(F)(F)F)ccc2OC[C@@H]2CCCN2)s1` [Example 44, N-[(2Z)-5-tert-butyl-3-[(2R)-tetrahydrofuran-2-ylmethyl]-1,3-thiazol-2(3H)-ylidene]-2-[(2S)-pyrrolidin-2-ylmethoxy]-5-(trifluoromethyl)benzamide]: the Ki was determined as 4.6 nM on human CB2 receptors and 2 nM on rat CB2 receptors. Moreover, the results for the EC50 in test [1] and in test [2] were 0.39 nM and 4730 nM, respectively.
For `CCN1CCC[C@H]1COc1ccc(C(F)(F)F)cc1C(=O)/N=c1\sc(C(C)(C)C)cn1C[C@H]1CCCO1` [Example 45, N-[(2Z)-5-tert-butyl-3-[(2R)-tetrahydrofuran-2-ylmethyl]-1,3-thiazol-2(3H)-ylidene]-2-{[(2S)-1-ethylpyrrolidin-2-yl]methoxy}-5-(trifluoromethyl)benzamide], the figures for the Ki on human CB2 receptors and on rat CB2 receptors were 8.2 nM and 8.6 nM, respectively. The EC50 in test [1] (setting [3]) was 0.83 nM; in test [2], 5010 nM.
For `CC(C)N1CCC[C@H]1COc1ccc(C(F)(F)F)cc1C(=O)/N=c1\sc(C(C)(C)C)cn1C[C@H]1CCCO1` [Example 46, N-[(2Z)-5-tert-butyl-3-[(2R)-tetrahydrofuran-2-ylmethyl]-1,3-thiazol-2(3H)-ylidene]-2-{[(2S)-1-isopropylpyrrolidin-2-yl]methoxy}-5-(trifluoromethyl)benzamide], in that order: 102 nM, 21 nM, 7.32 nM and 5420 nM.
Taken in the same sequence, the figures for `CC(C)(C)c1cn(C[C@H]2CCCO2)/c(=N/C(=O)c2cc(C(F)(F)F)ccc2OC[C@@H]2CCCN2S(C)(=O)=O)s1` [Example 48, N-[(2Z)-5-tert-butyl-3-[(2R)-tetrahydrofuran-2-ylmethyl]-1,3-thiazol-2(3H)-ylidene]-2-{[(2S)-1-(methylsulfonyl)pyrrolidin-2-yl]methoxy}-5-(trifluoromethyl)benzamide] were 16 nM, 3 nM, 0.39 nM and 8650 nM.
Consider `CC(C)(C)c1cn(C[C@H]2CCCO2)/c(=N/C(=O)c2cc(C(F)(F)F)ccc2OC[C@H]2CCC[N+]2(C)[O-])s1` (some centres unmarked) [Example 49], for which the Ki at human CB2 receptors was determined as 24 nM; on rat CB2 receptors it was 12 nM. Further, the concentration for a half-maximal effect (EC50) worked out at 0.45 nM in test [1] (setting [3]) and 7760 nM in test [2] (setting [4]).
On to `CC(C)(O)CCOc1ccc(C(F)(F)F)cc1C(=O)/N=c1\sc(C(C)(C)C)cn1C[C@H]1CCCO1` [Example 50, N-[(2Z)-5-tert-butyl-3-[(2R)-tetrahydrofuran-2-ylmethyl]-1,3-thiazol-2(3H)-ylidene]-2-(3-hydroxy-3-methylbutoxy)-5-(trifluoromethyl)benzamide], for which the Ki on human CB2 receptors was found to be 1.3 nM; at rat CB2 receptors, 0.5 nM. For the same molecule, the results for the concentration for a half-maximal effect (EC50) in test [1] and in test [2] were 1.21 nM and 1870 nM, respectively.
Turning to `CN1CCC[C@H]1COc1ccc(C(F)(F)F)cc1C(=S)/N=c1\sc(C(C)(C)C)cn1C[C@H]1CCCO1` [Example 51, N-[(2Z)-5-tert-butyl-3-[(2R)-tetrahydrofuran-2-ylmethyl]-1,3-thiazol-2(3H)-ylidene]-2-{[(2S)-1-methylpyrrolidin-2-yl]methoxy}-5-(trifluoromethyl)benzenecarbothioamide], the Ki at human CB2 receptors was determined as 1.3 nM; on rat CB2 receptors it was 0.9 nM. The EC50 in test [1] (setting [3]) was 0.34 nM; in test [2] it was 1320 nM.
For `CN1C[C@@H](F)C[C@H]1COc1ccc(C(F)(F)F)cc1C(=O)/N=c1\sc(C(C)(C)C)cn1C[C@H]1CCCO1` [Example 53, N-[(2Z)-5-tert-butyl-3-[(2R)-tetrahydrofuran-2-ylmethyl]-1,3-thiazol-2(3H)-ylidene]-2-{[(2S,4S)-4-fluoro-1-methylpyrrolidin-2-yl]methoxy}-5-(trifluoromethyl)benzamide], in that order: 3 nM, 3.6 nM, 0.12 nM and 1130 nM.
Taken in the same sequence, the figures for `CN1C[C@H](F)C[C@H]1COc1ccc(C(F)(F)F)cc1C(=O)/N=c1\sc(C(C)(C)C)cn1C[C@H]1CCCO1` [Example 54, N-[(2Z)-5-tert-butyl-3-[(2R)-tetrahydrofuran-2-ylmethyl]-1,3-thiazol-2(3H)-ylidene]-2-{[(2S,4R)-4-fluoro-1-methylpyrrolidin-2-yl]methoxy}-5-(trifluoromethyl)benzamide] were 2 nM, 1.5 nM, 0.15 nM and 362 nM.
